{
  "source": "patent US20140163100A1",
  "about": "“Methods of Treating Multiple Sclerosis and Preserving and/or Increasing Myelin Content” (BIOGEN IDEC MA INC., priority 2011, published 2014)",
  "key": {"[1]": {"tested_on": "subjects with relapsing-remitting multiple sclerosis", "assay": "First Phase 3 clinical trial: relapse and disability efficacy", "type": "in vivo, human", "conditions": "for reduction of ARR vs placebo / reduction of risk of confirmed, 12-week disability progression: 2 years; for annualized relapse rate (ARR): 2 years (placebo 0.36); for reduction of risk of confirmed, 12-week disability progression: EDSS; for reduction of proportion of subjects relapsing compared with placebo: at 2 years", "experimental": "The primary endpoint of the study in Example 1 was the proportion of subjects relapsing at 2 years, with relapses confirmed by an independent neurology evaluation committee (“INEC”) to ensure consistent and accurate reporting across sites. Secondary clinical efficacy endpoints at 2 years were the annualized relapse rate (“ARR”) and disability progression using EDSS. Efficacy analyses were conducted on the intention-to-treat population."}, "[2]": {"assay": "First Phase 3 clinical trial: safety and tolerability (adverse events)", "type": "in vivo, human", "experimental": "Safety and tolerability were assessed by continuous adverse event (“AE”) monitoring and laboratory tests at all monthly visits. Additionally, physical examination, vital signs, and 12-lead ECG were evaluated. As an ethical consideration, subjects' reconsent was required following any protocol-defined disability progression or relapse."}, "[3]": {"tested_on": "subjects with relapsing-remitting multiple sclerosis", "assay": "First Phase 3 clinical trial: MRI lesion loads", "type": "in vivo, human", "conditions": "2 years", "experimental": "Subjects from 76 sites out of 198 participating in the study described in Example 1 had MRI scans at baseline, 24 weeks, 1 year and 2 years. Number of new or newly enlarging T2 lesions and number of gadolinium-enhancing (Gd+) lesions at 2 years were secondary endpoints of the study. Analyses were conducted on the MRI intention-to-treat population."}, "[4]": {"tested_on": "subjects with relapsing-remitting multiple sclerosis", "assay": "First Phase 3 clinical trial: quality of life (SF-36, VAS)", "type": "in vivo, human", "conditions": "for mean SF-36 PCS score: at 2 years (placebo 42.0); for SF-36 Mental Component Scale score: at 2 years (placebo 44.6); for mean VAS score (global impression of well-being): at 2 years (placebo 60.3)", "experimental": "Subjects participating in the study described in Example 1 were provided an SF-36 questionnaire to measure the subjects' health status and health-related quality of life (“QoL”) at baseline, 6, 12, and 24 months, on eight multi-item, 100-point scales, with higher scores indicating higher QoL. These scores were used to calculate the Physical Component Summary (“PCS”) and Mental Component Summary (“MCS”) scores. In addition, the subjects' global impression of well-being was assessed at baseline and every 3 months using a 100-point, visual analogue scale (VAS) with higher score indicating improvement in well-being."}, "[5]": {"tested_on": "subjects with relapsing-remitting multiple sclerosis", "assay": "First Phase 3 clinical trial: magnetization transfer ratio (MTR) substudy", "type": "in vivo, human", "text": "The study described in Example 1 included a substudy to examine change in magnetization transfer ratio (“MTR”) with treatment. MTR imaging has been proposed for use as a biomarker of changes in the myelin content of brain white matter. The aim of the study was to determine change in brain and lesion MTR in RR-MS. MTR scans were obtained in a subset of subjects at baseline and 6, 12 and 24 months, using manufacturer-supplied MT pulse sequences. MTR substudies were implemented at 64 of 76 MRI sites (84%) and included a total of 540 subjects: 176 in the dimethyl fumarate 240 mg bid group, 184 in the dimethyl fumarate 240 mg tid group, and 180 in the placebo group."}, "[6]": {"tested_on": "mouse MS model", "assay": "Mouse MS model, neuroprotective effects", "type": "in vivo", "conditions": "mouse MS model with features of advanced stages of chronic forms of MS", "text": "Although many well characterized rodent and primate models for MS exist, only recently have the characteristic features of progressive MS been identified in select animal models."}, "[7]": {"conditions": "human, in vivo"}},
  "note": "Counter-ions that a name gives are not always drawn. Like-named read-outs stand apart in the source and are kept apart here.",
  "data": [
    {"smiles": "COC(=O)/C=C/C(=O)OC", "note": "[dimethyl fumarate]", "values": [
      {"measurement": "reduction of ARR vs placebo", "setting": "[1]; 240 mg BID", "value": 53, "unit": "%"},
      {"measurement": "annualized relapse rate (ARR)", "setting": "[1]; 240 mg BID", "value": 0.17},
      {"measurement": "reduction of risk of confirmed, 12-week disability progression", "setting": "[1]; 240 mg BID", "value": 38, "unit": "%"},
      {"measurement": "Annualized relapse rate at 2 years, % Reduction vs. Placebo", "setting": "[1]; 240 mg BID, <40 years", "value": 63, "unit": "%"},
      {"measurement": "Proportion of patients relapsed at 2 years, % Reduction vs. Placebo", "setting": "[1]; 240 mg BID, <40 years", "value": 59, "unit": "%"},
      {"measurement": "Time to confirmed disability progression at 2 years, % Reduction vs. Placebo", "setting": "[1]; 240 mg BID, <40 years", "value": 62, "unit": "%"},
      {"measurement": "reduction of proportion of subjects relapsing compared with placebo", "setting": "[1]; 240 mg BID", "value": 49, "unit": "%"},
      {"measurement": "Annualized relapse rate at 2 years, % Reduction vs. Placebo", "setting": "[1]; 240 mg BID, ≧40 years", "value": 34, "unit": "%"},
      {"measurement": "Proportion of patients relapsed at 2 years, % Reduction vs. Placebo", "setting": "[1]; 240 mg BID, ≧40 years", "value": 26, "unit": "%"},
      {"measurement": "Time to confirmed disability progression at 2 years, % Reduction vs. Placebo", "setting": "[1]; 240 mg BID, ≧40 years", "value": 8, "unit": "%"},
      {"measurement": "Annualized relapse rate at 2 years, % Reduction vs. Placebo", "setting": "[1]; 240 mg TID, <40 years", "value": 59, "unit": "%"},
      {"measurement": "Proportion of patients relapsed at 2 years, % Reduction vs. Placebo", "setting": "[1]; 240 mg TID, <40 years", "value": 56, "unit": "%"},
      {"measurement": "Time to confirmed disability progression at 2 years, % Reduction vs. Placebo", "setting": "[1]; 240 mg TID, <40 years", "value": 38, "unit": "%"},
      {"measurement": "Annualized relapse rate at 2 years, % Reduction vs. Placebo", "setting": "[1]; 240 mg TID, ≧40 years", "value": 29, "unit": "%"},
      {"measurement": "Proportion of patients relapsed at 2 years, % Reduction vs. Placebo", "setting": "[1]; 240 mg TID, ≧40 years", "value": 37, "unit": "%"},
      {"measurement": "Time to confirmed disability progression at 2 years, % Reduction vs. Placebo", "setting": "[1]; 240 mg TID, ≧40 years", "value": 32, "unit": "%"},
      {"measurement": "reduction of ARR vs placebo", "setting": "[1]; TID", "value": 48, "unit": "%"},
      {"measurement": "annualized relapse rate (ARR)", "setting": "[1]; TID", "value": 0.19},
      {"measurement": "reduction of risk of confirmed, 12-week disability progression", "setting": "[1]; TID", "value": "approximately 34%"},
      {"measurement": "reduction of proportion of subjects relapsing compared with placebo", "setting": "[1]; TID", "value": 50, "unit": "%"},
      {"measurement": "efficacy by age subgroup", "setting": "[1]; subjects under 40 years vs 40 years or older, 240 mg BID and TID", "value": "more efficacious in subjects under 40 years of age"},
      {"measurement": "deaths", "setting": "[2]; dimethyl fumarate TID arm, result of a motor vehicle accident", "value": "One death"},
      {"measurement": "MS relapse reported as AE", "setting": "[2]; human, in vivo", "value": 27, "unit": "%"},
      {"measurement": "opportunistic infections", "setting": "[2]; human, in vivo", "value": "no opportunistic infections were observed"},
      {"measurement": "AEs reported by subjects", "setting": "[2]; human, in vivo, 2 years", "value": 95, "unit": "%"},
      {"measurement": "Incidence of infections and infestations", "setting": "[2]; human, in vivo, 2 years", "value": "64-68%"},
      {"measurement": "Incidence of severe infections and infestations", "setting": "[2]; human, in vivo, 2 years", "value": "2-3%"},
      {"measurement": "Severe AEs reported", "setting": "[2]; human, in vivo, 2 years", "value": 17, "unit": "%"},
      {"measurement": "subjects discontinuing treatment due to AEs (number)", "setting": "[2]; human, in vivo, 2 years", "value": 68},
      {"measurement": "subjects discontinuing treatment due to AEs (percent)", "setting": "[2]; human, in vivo, 2 years", "value": 16, "unit": "%"},
      {"measurement": "subjects reporting flushing", "setting": "[2]; human, in vivo, 2 years", "value": 32, "unit": "%"},
      {"measurement": "subjects withdrew from the study", "setting": "[2]; human, in vivo, 2 years", "value": "approximately 23%"},
      {"measurement": "reduction of mean number of Gd+ lesions compared with placebo", "setting": "[3]; 240 mg BID", "value": 94, "unit": "%"},
      {"measurement": "reduction of mean number of new or newly enlarging T2 lesions compared with placebo", "setting": "[3]; 240 mg BID", "value": 85, "unit": "%"},
      {"measurement": "reduction of mean number of Gd+ lesions compared with placebo", "setting": "[3]; TID", "value": 72, "unit": "%"},
      {"measurement": "reduction of mean number of new or newly enlarging T2 lesions compared with placebo", "setting": "[3]; TID", "value": 74, "unit": "%"},
      {"measurement": "mean SF-36 PCS score", "setting": "[4]; 240 mg BID", "value": 43.4},
      {"measurement": "SF-36 Mental Component Scale score", "setting": "[4]; 240 mg BID", "value": 45.5},
      {"measurement": "mean VAS score (global impression of well-being)", "setting": "[4]; 240 mg BID", "value": 64.3},
      {"measurement": "mean SF-36 PCS score", "setting": "[4]; TID", "value": 44.2},
      {"measurement": "SF-36 Mental Component Scale score", "setting": "[4]; TID", "value": 46.1},
      {"measurement": "mean VAS score (global impression of well-being)", "setting": "[4]; TID", "value": 65.7},
      {"measurement": "increase from baseline in whole brain MTR", "setting": "[5]; 240 mg bid (placebo −0.386%)", "value": 0.129, "unit": "%"},
      {"measurement": "increase from baseline in normal appearing brain tissue MTR", "setting": "[5]; 240 mg bid (placebo −0.392%)", "value": 0.190, "unit": "%"},
      {"measurement": "increase from baseline in whole brain MTR", "setting": "[5]; 240 mg tid (placebo −0.386%)", "value": 0.096, "unit": "%"},
      {"measurement": "increase from baseline in normal appearing brain tissue MTR", "setting": "[5]; 240 mg tid (placebo −0.392%)", "value": 0.115, "unit": "%"},
      {"measurement": "neuroprotective effects", "setting": "[6]", "value": "reduction in demyelination and axonal damage"},
      {"measurement": "most frequently reported AEs associated with dimethyl fumarate", "setting": "[7]", "value": "flushing, diarrhea, nausea, upper respiratory tract infection, abdominal pain, and proteinuria"},
      {"measurement": "AEs reported by subjects", "setting": "[7]; 2 years", "value": 92, "unit": "%"},
      {"measurement": "subjects discontinuing treatment due to AEs (number)", "setting": "[7]; 2 years", "value": 41},
      {"measurement": "subjects discontinuing treatment due to AEs (percent)", "setting": "[7]; 2 years", "value": 12, "unit": "%"},
      {"measurement": "subjects withdrew from the study", "setting": "[7]; 2 years", "value": 21, "unit": "%"}
    ]}
  ]
}
